From US10045972B2, “Hydroxypyridone derivatives, pharmaceutical compositions thereof, and their therapeutic use for treating inflammatory, neurodegenerative, or immune-mediated diseases” (BioTheryX, Inc., priority 2014, dated 2018)
“Also recorded” adds a separate entry of the source.

Columns and labels:
MO3-13 cells [1] = assay: Protection of differentiated MO3-13 cells against TNF-α toxicity (Kinetic Apoptosis Kit, live cell fluorescence microscopy); assay type: cell-based; details: 1 μM ciclopirox with human TNF-α protein 30 ng/mL; images after 1, 15 and 72 hrs, FIG. 3
Description: The protective effects of ciclopirox on MO3-13 cells against TNF-α toxicity was also determined. MO3-13 cells were grown in 6 well dishes and allowed to adhere overnight. Cells were grown to 70% confluence and then differentiated into oligodendrocyte-like cells by removal of FBS from DMEM medium for 48 hrs. Cells were treated with vehicle (no treatment); human TNF-α protein (30 ng/mL); 1 μM ciclopirox; and a combination of 1 μM ciclopirox and human TNF-α protein (30 ng/mL). Cells were treated with Abcam's Kinetic Apoptosis Kit (Microscopy) prior to live cell fluorescence microscopy imaging using an inverted Zeiss epi-fluorescent microscope. Merged images of phase contrast, green (pSIVA-IANBD) and red (PI) fluorescence were captured after 1 hr, 15 and 72 hrs in cell culture.

[2] = tested on: TNF-α secretion from human primary glioblastoma cells (U87); assay: Reduction of TNF-α secretion from U87 cells (slot blot of conditioned media); assay type: cell-based; details: compound at 10 μM, 48 hrs, FIG. 1
Description: TNF-α secretion was measured using U87 cell line. Cells were distributed into 6 well dishes and allowed to adhere overnight. When cells were confluent, they were treated with 6-cyclohexyl-1-hydroxy-4-methyl-1H-pyridine-2-thione A1 at 10 μM in each dish, wherein compound A1 was solubilized in neat DMEM. Cells were exposed to the compound for 48 hrs. Conditioned media was collected and assayed for TNF-α using mouse monoclonal to TNF-α (Abcam 52B83, Cambridge, Mass.). Conditioned media (100 μL) was applied to each slot. The nitrocellulose filter membrane was blocked with ECL advanced block (2% in Tris buffered saline with Tween-20 (0.05%)) for 1 hr with gentle shaking at room temperature. Primary mouse anti-TNF-α (Abcam 52B83) was diluted 1,000× in the blocking solution. Primary antibodies were applied to blots and incubated overnight at 4° C. with gentle shaking. Blots were developed using enhanced ECL (GE Healthcare) method. Images of bound antibodies were captured using Image Lab software driving a Bio-Rad ChemiDoc XRS+ image capture system.

[3] = tested on: human oligodendrocytes (MO3-13); assay: TNF-α toxicity on MO3-13 cells and protection (Trypan blue cell counts); assay type: cell-based; details: cells exposed to LD50 human TNF-α protein, FIG. 2
Description: MO3-13 cells were grown in 6 well dishes (100,000 cells per dish) and allowed to adhere overnight. Cells were treated with increasing amounts of human recombinant TNF-α protein (Abcam Ab9642). Cells either treated with increasing amounts of TNF-α protein or with vehicle (PBS) were allowed to grow for additional 24 hrs, after which MO3-13 cells were trypsinized and counted using Trypan blue and a Nebauer hemocytometer. Mean cell counts were plotted graphically against TNF-α concentrations. The LD50 of human TNF-α was determined to be 30 ng/mL on MO3-13 cells. The protective effects of compound A1 on MO3-13 cells that were exposed to LD50 human TNF-α protein were then determined and the results are shown in FIG. 2.

MO3-13 cells [4] = assay: Protection of MO3-13 cells from cuprizone toxicity (phase contrast); assay type: cell-based, human; details: compound 5 μM, cuprizone 50 μM, 24 hrs, FIG. 5
Description: The protective effects of compound A1 on MO3-13 cells from cuprizone toxicity was then determined. […] Cuprizone at a final concentration of 50 μM was solubilized in 100% ethanol was added to selected dishes with and without compound A1 (5 μM) in DMSO.

[5] = tested on: primary mouse oligodendrocytes; assay: Protection from cuprizone toxicity, primary mouse oligodendrocytes, MITOTRACKER and immunocytochemistry; assay type: cell-based; details: MITOTRACKER (red) and beta-catenin (green), FIG. 6
Description: (§1) Stock MITOTRACKER® (Molecular Probes) was diluted with DMSO to a final concentration of 1 mM. MITOTRACKER® (100 nM) was incubated with the live cells at 37° C. for 30 min. MITOTRACKER® labeling of mitochondria was assessed using a Zeiss inverted microscope. Following MITOTRACKER® treatment, cells were processed for immunocytochemistry. Cells grown on mouse oligodendrocyte extracellular matrix coated cover slips (Celprogen) were fixed with fixing solution containing 0.1% gluteraldehyde, 2% paraformaldehyde, 80 mM Pipes, 5 mM EGTA, pH 8.0, 1 mM MgCl2, and 0.5% Triton-X100. The cells were fixed for 7 min at 37° C. The cells on cover slips were washed and then blocked with 2% bovine serum albumin (BSA) for 1 hr. Primary antibodies were diluted in 2% BSA and incubated on the cover glass for 1 hr in a humid chamber. Following incubation, cover slips were washed and then incubated for 1 hr with species-specific secondary antibodies conjugated with fluorescent label or with biotin. After washing, slides were incubated with streptavidin conjugated with fluorescein fluorescent labels for 40 min. Cover slips were washed again and mounted with DABCO mountant. Fluorescently labeled cells were visualized with a Zeiss epi-fluorescent microscope. Data collected was for MITOTRACKER® (red channel) and beta-catenin (green channel).

[6] = tested on: primary human oligodendrocytes; assay: Protection from cuprizone toxicity, primary human oligodendrocytes, live cell images; details: 24 hrs, FIG. 7
Description: Cells were weaned off with fetal bovine serum containing differentiation medium (Celprogen) up to 25 days in culture. The cells were exposed to either no treatment (Vehicles=ethanol and DMSO); compound A1 ranging in dosage of 2, 5 and 10 μM; cuprizone (50 μM) (Sigma Aldrich) or a combination of compound A1 and cuprizone (50 μM). Cells were treated for 24 hrs, after which images were captured of live cells using an inverted Zeiss microscope.

[7] = tested on: myelin basic protein (MBP) in MO3-13 cells; assay: Induction of myelin basic protein (MBP) production in MO3-13 cells (slot blot, anti-MBP); assay type: cell-based, human
Description: Dilutions (0.1 mg/mL) of MO3-13 whole cell extracts were prepared and the proteins (5 μg) from the dilutions were blotted onto nitrocellulose membrane using a slot blotter. The non-protein sites on the blot were blocked with 2% ECL block in PBS-Tween20. Primary […] was diluted in block solution at 300×. The primary antibody was incubated overnight at 4° C. with gentle shaking. The following day the blot was developed using enhanced ECL (GE Healthcare) method. Image of bound antibody were captured using Image Lab software driving a Bio-Rad ChemiDoc XRS+ image capture system.

[8] = tested on: primary human oligodendrocytes; assay: Protection from cuprizone toxicity, primary human oligodendrocytes, MITOTRACKER and immunocytochemistry; assay type: cell-based; details: MITOTRACKER (red), green channel, nuclei (blue), FIGS. 8 and 9
Description: as §1, with “MITOTRACKER®” for “Stock MITOTRACKER® (Molecular Probes) was diluted with DMSO to a final concentration of 1 mM. MITOTRACKER®”, “human” for “mouse”, “MBP” for “beta-catenin”, “channel). Nuclei are labeled with DAPI (blue channel).” for “channel).”

## Cc1cc(C2CCCCC2)n(O)c(=O)c1 [ciclopirox]
MO3-13 cells [1]
  protection of MO3-13 cells against TNF-α toxicity: protection; also recorded: protective up to 72 hrs

## Cc1cc(C2CCCCC2)n(O)c(=S)c1 [compound A1, 6-cyclohexyl-1-hydroxy-4-methyl-1H-pyridine-2-thione]
[2]
  reduction of TNF-α secretion: reduction of TNF-α secretion
[3]
  protection of MO3-13 cells against TNF-α toxicity: protection
MO3-13 cells [4]
  protection of MO3-13 cells against cuprizone toxicity: protection
[5]
  protection of primary mouse oligodendrocytes against cuprizone toxicity: protection
[6]; compound 2, 5 and 10 μM with cuprizone 50 μM, live cell images
  protection of primary human oligodendrocytes against cuprizone toxicity: protection; also recorded: appears to be protective at various dosings
[7]; MO3-13 cells treated with Cpz and compound, p<0.001, FIG. 10
  MBP bound by anti-MBP (induction of MBP production): induction of myelin basic protein (MBP) production; also recorded: significantly higher
[7]; MO3-13 cells treated with compound alone, p<0.001, FIG. 10
  MBP bound by anti-MBP: significantly higher
[8]
  protection of primary human oligodendrocytes against cuprizone toxicity: protection

## O=C(NN=C1CCCCC1)C(=O)NN=C1CCCCC1 [cuprizone, reference compound]
[6]; cuprizone 50 μM alone
  toxicity of cuprizone to primary human oligodendrocytes: toxic
[7]; MO3-13 cells treated with Cpz alone, FIG. 10
  anti-MBP antibody binding compared with non-treated (NT) cells: reduced anti-MBP antibody binding
